Source: US20130267588A1, “HYDROXYTYROSOL ETHERS” (FUNDACIO IMIM, priority 2010, published 2013)
Like-named read-outs stand apart in the source and are kept apart here.

Legend:
CB1 receptor = molecular target: T1, CB1 receptor (Rattus norvegicus, UniProt P20272); assay: Ligand-receptor assay for the CB1 receptor, displacement of [3H] SR141716; format: binding; settings: rat cerebellum membranes
T1 construct: displace [^3H]; from tissue; host or cells: rat cerebellum membranes
Description: The ligand-receptor assay for the CB1 receptor evaluates the capacity of the synthesized compounds to displace [^3H]
The ligand-receptor assay was performed using the CB1 labeled antagonist, [^3H] […] 450 μL of pH-regulating solution A (50 mM Tris pH=7.4 with 0.5% bovine serum albumin (BSA)), 100-200 μg rat cerebellum membranes, the diluted product and the labeled CB1 antagonist, [^3H] […] After incubating for […] at 37° C., the reaction was stopped with 1 mL of pH-regulating solution A. The mixture was centrifuged at 5000 rpm for 5 minutes. The supernatant was discarded and the pellet washed with another 1 mL of pH-regulating solution A, centrifuged and the supernatant one again was discarded. Scintillation liquid was added and the samples were read in a beta particle counter (Liquid Scintillation Analyzer, Tri-Carb 2100 TR, PACKARD, Packard Bioscience Company).

male Wistar rats = assay: Acute intake experiment in animals fasting for 24 hours; format: in vivo, rat; settings: rats fasted 24 hours, food given 30 min after injection, n=8
Description: All the in vivo experiments were performed using male Wistar rats weighing 200-500 g. The animals were housed in individual cages in a room with controlled temperature (23° C.) and humidity (50%) with a 12/12 light and dark cycle. The animals had access to water and food ad libitum except in specific experimental methods. The animals were manipulated once a day for this two days before the experimental sessions. All the products were dissolved in a mixture of DMSO (5%), Tween 60 (5%)/saline (90%). The in vivo experiments included the analysis of intake and effects on general behavior. None of the assayed compounds altered the general behavior of the animal but some reduced the animal's appetite (FIGS. 1 to 8).
The acute effect on the intake of all the products was tested in animals fasting for 24 hours.
Thirty minutes after injection, previously weighed food was put in the cage. The food was weighed 30, 60, 120 and 240 minutes after starting the test. All the intake experiments were performed with groups of 8 animals (n=8) (FIGS. 1 to 8). […] The compounds (Z)-1-(2-phenylethoxy)octadec-9-ene (Example 3, FIG. 1) and (Z)-1-(2-(3,4-methylenedioxyphenyl)ethoxy)octadec-9-ene (Example 2, FIG. 3) reduced intake by about 25%. All the compounds had long-term effects, the reduction of intake being significant 4 hours after administration.

LDL = assay: Conjugated dienes experiment, copper-induced LDL oxidation; format: biochemical, human; settings: compounds at 0.5, 1 and 3 μM
Description: Blood from healthy, fasting volunteers is collected in tubes containing 1 g/L of EDTA. The plasma is prepared by centrifugation at 1,000 g and 4° C. for 15 minutes. LDL is isolated by sequential ultracentrifugation. Native LDL is dialyzed by size exclusion chromatography in Sephadex G25 columns (Pharmacia, Uppsala, Sweden), with 2.7 ml of 0.01 mol pH 7.4 phosphate buffer (PB) at 4° C. The apolipoprotein B100 content is determined by immunoturbidimetry (ABX Diagnostics—Montpellier, France).
Dialyzed LDL (final concentration of 0.06 g of Apo-B/L) in PB at a final volume of 150 μL was incubated in a […] ELISA plate (flat bottom, transparent to UV, Corning®) with 10 μL of methanol in the presence or absence (control) of the compounds object of the study. 10 μL of a 100 μM copper sulfate solution (final concentration of […]) are then added. To minimize evaporation during prolonged incubation periods, 10 μL of mineral oil (Sigma-Aldrich) are added on the surface of the reaction mixture. […] The absorbance at 234 nm is continuously monitored every 15 minutes for 24 hours in an Infinite M200 plate reader (TECAN IBERICA, Männedorf, Switzerland). The controls and the samples (containing concentrations of the compounds to be assayed of 0.5, 1 and 3 μM) were evaluated in the same assay in duplicate and each experiment was repeated three times. […]

T1 sequence (P20272 whole entry): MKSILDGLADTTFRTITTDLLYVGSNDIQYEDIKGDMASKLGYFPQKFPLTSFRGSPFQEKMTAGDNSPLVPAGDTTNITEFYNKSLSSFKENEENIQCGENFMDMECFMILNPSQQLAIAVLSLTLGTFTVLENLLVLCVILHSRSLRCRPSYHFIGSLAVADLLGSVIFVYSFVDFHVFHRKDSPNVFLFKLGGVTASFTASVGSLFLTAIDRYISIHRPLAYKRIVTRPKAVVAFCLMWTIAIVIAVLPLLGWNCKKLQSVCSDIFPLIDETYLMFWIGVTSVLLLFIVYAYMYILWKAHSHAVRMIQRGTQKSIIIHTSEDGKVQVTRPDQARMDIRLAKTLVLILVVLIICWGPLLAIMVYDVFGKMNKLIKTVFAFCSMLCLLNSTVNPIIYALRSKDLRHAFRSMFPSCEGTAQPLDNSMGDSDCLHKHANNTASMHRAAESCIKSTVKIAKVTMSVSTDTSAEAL

CB1 Ki (M) (CB1 receptor) | CB1 pKi (CB1 receptor) | Structure (SMILES) | Ki (CB1 receptor; read-out: CB1 Ki) | reduction of intake with respect to the control group (male Wistar rats) | Ki (CB1 receptor; read-out: CB1 pKi (converted)) | LDL antioxidant activity (lag-time until formation of conjugated dienes) (LDL)
 |  | CCCCC/C=C\C/C=C\CCCCCCCCOCCc1ccc2c(c1)OCO2 [Example 5, (9Z,12Z)-1-(2-(3,4-methylenedioxyphenyl)ethoxy)-octadeca-9,12-diene] | 22.5 µM |  |  | 
No affinity | No affinity | CCCCCCCC/C=C\CCCCCCCCOCCc1ccccc1 [Example 3, (Z)-1-(2-phenylethoxy)octadec-9-ene] |  | about 25% |  | 
 |  | CCCCC/C=C\C/C=C\CCCCCCCCOCCc1ccc(O)c(O)c1 [Example 10, (9Z,12Z)-1-(2-(3,4-dihydroxyphenyl)ethoxy)-octadeca-9,12-diene] | 7.49 µM | 50% | 7.59 µM | activity similar to that of hydroxytyrosol at the three assayed concentrations
No affinity | No affinity | CCCCCCCC/C=C\CCCCCCCCOCCc1ccc2c(c1)OCO2 [Example 2, (Z)-1-(2-(3,4-methylenedioxyphenyl)ethoxy)octadec-9-ene] |  | about 25% |  | 
